Measured values as given in PubChem BioAssay (NCI).
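Test compounds were applied to cells in 96-well plates for 48 hours at 5 doses. TGI marks complete inhibition of growth.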

Assays:
Assay in all cases: NCI anticancer screen, dose series, 48 h
[1] = tested on: SR leukemia
[2] = tested on: MALME-3M melanoma
[3] = tested on: UACC-62 melanoma
[4] = tested on: OVCAR-5 ovarian
[5] = tested on: COLO 205 colon
[6] = tested on: EKVX NSCLC
[7] = tested on: UACC-257 melanoma
[8] = tested on: SN12C renal
[9] = tested on: K-562 leukemia
[10] = tested on: HT29 colon
[11] = tested on: UO-31 renal
[12] = tested on: NCI-H460 lung
[13] = tested on: SK-MEL-28 melanoma
[14] = tested on: CCRF-CEM leukemia
[15] = tested on: OVCAR-8 ovarian
[16] = tested on: NCI-H23 lung
[17] = tested on: HCT-116 colon
[18] = tested on: ACHN renal
[19] = tested on: SF-539 CNS
[20] = tested on: OVCAR-3 ovarian
[21] = tested on: BT-549 breast
[22] = tested on: IGROV1 ovarian
[23] = tested on: U251 CNS
[24] = tested on: MDA-MB-435
[25] = tested on: SK-MEL-5 melanoma
[26] = tested on: MDA-MB-231 breast
[27] = tested on: M14 melanoma
[28] = tested on: HCC-2998 colon
[29] = tested on: CAKI-1 renal
[30] = tested on: SW-620 colon
[31] = tested on: NCI/ADR-RES ovarian
[32] = tested on: OVCAR-4 ovarian
[33] = tested on: HL-60(TB) leukemia
[34] = tested on: 786-0 renal
[35] = tested on: KM12 colon
[36] = tested on: MOLT-4 leukemia
[37] = tested on: MCF7 breast
[38] = tested on: LOX IMVI melanoma
[39] = tested on: TK-10 renal
[40] = tested on: RPMI-8226 leukemia
[41] = tested on: DU-145 prostate
[42] = tested on: SF-295 CNS
[43] = tested on: MDA-N
[44] = tested on: NCI-H522 lung
[45] = tested on: PC-3 prostate
[46] = tested on: SNB-19 CNS
[47] = tested on: SK-OV-3 ovarian
[48] = tested on: SK-MEL-2 melanoma
[49] = tested on: A549 NSCLC
[50] = tested on: HCT-15 colon
[51] = tested on: SF-268 CNS
[52] = tested on: HOP-62 NSCLC
[53] = tested on: A498 renal
[54] = tested on: NCI-H226 lung
[55] = tested on: HS 578T breast
[56] = tested on: T-47D breast
[57] = tested on: HOP-92 NSCLC

SMILES: CC1CN=C(NS(=O)(=O)c2cc(C(=O)Nc3ccccc3)c(Cl)cc2S)NN1 (centres undefined)
- TGI [1]: > 100 µM
- TGI [2]: 77 µM
- TGI [3]: > 100 µM
- TGI [4]: > 100 µM
- TGI [5]: > 100 µM
- TGI [6]: > 100 µM
- TGI [7]: > 100 µM
- TGI [8]: > 100 µM
- TGI [9]: > 100 µM
- TGI [10]: > 100 µM
- TGI [11]: > 100 µM
- TGI [12]: > 100 µM
- TGI [13]: > 100 µM
- TGI [14]: > 100 µM
- TGI [15]: > 100 µM
- TGI [16]: > 100 µM
- TGI [17]: > 100 µM
- TGI [18]: > 100 µM
- TGI [19]: > 100 µM
- TGI [20]: > 100 µM
- TGI [21]: > 100 µM
- TGI [22]: 83.3 µM
- TGI [23]: > 100 µM
- TGI [24]: 52.5 µM
- TGI [25]: > 100 µM
- TGI [26]: > 100 µM
- TGI [27]: > 100 µM
- TGI [28]: > 100 µM
- TGI [29]: > 100 µM
- TGI [30]: > 100 µM
- TGI [31]: > 100 µM
- TGI [32]: > 100 µM
- TGI [33]: > 100 µM
- TGI [34]: > 100 µM
- TGI [35]: > 100 µM
- TGI [36]: > 100 µM
- TGI [37]: > 100 µM
- TGI [38]: > 100 µM
- TGI [39]: > 100 µM
- TGI [40]: > 100 µM
- TGI [41]: > 100 µM
- TGI [42]: > 100 µM
- TGI [43]: 71.5 µM
- TGI [44]: 76.1 µM
- TGI [45]: > 100 µM
- TGI [46]: > 100 µM
- TGI [47]: > 100 µM
- TGI [48]: 71.6 µM
- TGI [49]: > 100 µM
- TGI [50]: > 100 µM
- TGI [51]: > 100 µM
- TGI [52]: > 100 µM
- TGI [53]: 57.4 µM
- TGI [54]: > 100 µM

SMILES: CC(=O)[C@]12OC(=O)C3=C1[C@H](CC[C@@H]3C)[C@@H](C)C[C@H]2C=C(C)C
- TGI [1]: 16.8 µM
- TGI [3]: 12.6 µM
- TGI [4]: 15.2 µM
- TGI [5]: 16.1 µM
- TGI [7]: 21 µM
- TGI [8]: 15.8 µM
- TGI [55]: 18.1 µM
- TGI [9]: 13.2 µM
- TGI [10]: 13.9 µM
- TGI [11]: 15.2 µM
- TGI [12]: 17.3 µM
- TGI [14]: 22.6 µM
- TGI [15]: 17 µM
- TGI [16]: 17.9 µM
- TGI [17]: 13.4 µM
- TGI [18]: 15.3 µM
- TGI [19]: 16.5 µM
- TGI [20]: 14 µM
- TGI [22]: 14.2 µM
- TGI [23]: 14.9 µM
- TGI [24]: 16 µM
- TGI [25]: 11.8 µM
- TGI [26]: 15.6 µM
- TGI [56]: 14.4 µM
- TGI [27]: 16.7 µM
- TGI [29]: 13 µM
- TGI [30]: 15.3 µM
- TGI [31]: 17.7 µM
- TGI [33]: 16 µM
- TGI [34]: 15.7 µM
- TGI [35]: 14.9 µM
- TGI [36]: 18.6 µM
- TGI [37]: 17.2 µM
- TGI [38]: 15.2 µM
- TGI [40]: 15.5 µM
- TGI [41]: 15.4 µM
- TGI [42]: 12.8 µM
- TGI [43]: 16.9 µM
- TGI [44]: 11.4 µM
- TGI [45]: 21.1 µM
- TGI [46]: 16.4 µM
- TGI [47]: 21.3 µM
- TGI [48]: 14.7 µM
- TGI [49]: 16.8 µM
- TGI [57]: 7.43 µM
- TGI [50]: 15.5 µM
- TGI [51]: 15.8 µM
- TGI [52]: 16 µM
- TGI [53]: 15.1 µM
- TGI [54]: 16 µM
